Target: human neprilysin (EC 3.4.24.11; NEP) (Homo sapiens (Human), UniProt P08473)
Test: In vitro enzyme inhibition assay at human NEP (fluorogenic peptide substrate)
Assay type: biochemical
Conditions: pKi values at human NEP, recombinant human NEP
Summary of the method: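 pKi derived from apparent Ki fitted as v=v0/[1+(I/K′)] to Ex320/Em405 fluorescence. Compounds (pM to 10 μM) sat with recombinant human enzyme 30 min at 37 °C before 10 μM fluorogenic Mca peptide was added in HEPES pH 7.5 buffer with 10 μM ZnSO4; 20 min reaction, acetic acid quench.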

human neprilysin (EC 3.4.24.11; NEP), sequence (P08473 52-750): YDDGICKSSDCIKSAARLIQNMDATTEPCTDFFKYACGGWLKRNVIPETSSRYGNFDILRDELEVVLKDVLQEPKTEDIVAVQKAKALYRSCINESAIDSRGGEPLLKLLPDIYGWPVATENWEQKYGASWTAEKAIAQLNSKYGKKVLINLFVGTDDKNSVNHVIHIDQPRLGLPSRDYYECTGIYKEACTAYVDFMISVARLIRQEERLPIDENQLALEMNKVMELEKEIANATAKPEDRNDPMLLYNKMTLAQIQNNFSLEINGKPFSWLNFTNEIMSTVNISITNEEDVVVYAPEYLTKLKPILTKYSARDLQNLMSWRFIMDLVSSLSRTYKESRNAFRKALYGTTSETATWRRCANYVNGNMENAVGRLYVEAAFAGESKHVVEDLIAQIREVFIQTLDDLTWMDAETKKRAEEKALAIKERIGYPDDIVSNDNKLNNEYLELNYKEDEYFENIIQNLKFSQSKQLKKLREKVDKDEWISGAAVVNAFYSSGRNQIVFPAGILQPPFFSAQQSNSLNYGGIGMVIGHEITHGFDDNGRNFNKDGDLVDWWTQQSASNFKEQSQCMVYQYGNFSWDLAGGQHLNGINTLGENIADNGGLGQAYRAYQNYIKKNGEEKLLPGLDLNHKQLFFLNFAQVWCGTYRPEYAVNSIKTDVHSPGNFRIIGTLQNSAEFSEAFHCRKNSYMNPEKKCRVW

| SMILES | Ki [µM] | pKi |
| --- | --- | --- |
| O=C(N[C@H](Cc1ccc(-c2ccccc2)cc1)CC(O)C(=O)O)c1cc(-c2ccc3ccccc3c2)[nH]n1 (stereo partly drawn) [Example 15-38, (R)-5-Biphenyl-4-yl-2-hydroxy-4-[(5-naphthalen-2-yl-1H-pyrazole-3-carbonyl)amino]-pentanoic acid] | 0.00126 to 0.01 | – |
| O=C(NC(Cc1ccc(-c2ccccc2)cc1)C[C@@H](O)C(=O)O)c1cc(-c2ccc(Cl)cc2)n[nH]1 (stereo partly drawn) [Example 15-83] | – | ≥9.0 |
| NC(=O)C1CCN(C(=O)c2cc(C(=O)N[C@H](Cc3ccc(-c4ccccc4)cc3)C[C@H](O)C(=O)O)[nH]n2)C1 (stereo partly drawn) [Example 15-44, (2S,4R)-5-Biphenyl-4-yl-4-{[5-(3-carbamoylpyrrolidine-1-carbonyl)-2H-pyrazole-3-carbonyl]-amino}-2-hydroxy-pentanoic acid] | 0.00126 to 0.01 | – |
| O=C(N[C@H](Cc1ccc(-c2ccccc2)cc1)CC(O)C(=O)O)c1cc(C(=O)O)n(Cc2ccc(Cl)c(OC(F)(F)F)c2)n1 (stereo partly drawn) [Example 15-12, 5-((R)-1-Biphenyl-4-ylmethyl-3-carboxy-3-hydroxy-propylcarbamoyl)-2-(4-chloro-3-trifluoromethoxybenzyl)-2H-pyrazole-3-carboxylic acid] | 0.0126 to 0.1 | – |
| O=C(N[C@H](Cc1ccc(-c2ccccc2)cc1)CC(O)C(=O)O)c1cc(-c2ccc(-c3ccccc3)cc2)[nH]n1 (stereo partly drawn) [Example 15-39, (R)-5-Biphenyl-4-yl-4-[(5-biphenyl-4-yl-1H-pyrazole-3-carbonyl)amino]-2-hydroxy-pentanoic acid] | 0.0126 to 0.1 | – |
| O=C(N[C@H](Cc1ccc(-c2ccccc2)cc1)CC(O)C(=O)O)c1cc(C(=O)O)n(Cc2cc(F)ccc2Cl)n1 (stereo partly drawn) [Example 15-10, 5-((R)-1-Biphenyl-4-ylmethyl-3-carboxy-3-hydroxy-propylcarbamoyl)-2-(2-chloro-5-fluorobenzyl)-2H-pyrazole-3-carboxylic acid] | 0.00126 to 0.01 | – |
| O=C(N[C@H](Cc1ccc(-c2ccccc2)cc1)C[C@@H](O)C(=O)O)c1cc(NC(=O)c2ccccc2Cl)on1 [Example 12-22, (2R,4R)-5-Biphenyl-4-yl-4-{[5-(2-chlorobenzoylamino)-isoxazole-3-carbonyl]-amino}-2-hydroxy-pentanoic acid] | – | ≥9.0 |
| O=C(N[C@H](Cc1ccc(-c2ccccc2)cc1)C[C@@H](O)C(=O)O)c1cc(-c2ccccc2O)[nH]n1 [Example 15-28, (2R,4R)-5-Biphenyl-4-yl-2-hydroxy-4-{[5-(2-hydroxy-phenyl)-1H-pyrazole-3-carbonyl]-amino}-pentanoic acid] | – | ≥9.0 |
| O=C(N[C@H](Cc1ccc(-c2ccccc2)cc1)C[C@@H](O)C(=O)O)c1cc(CN2CCOCC2)on1 [Example 12-19, (2R,4R)-5-Biphenyl-4-yl-2-hydroxy-4-[(5-morpholin-4-ylmethyl-isoxazole-3-carbonyl)-amino]-pentanoic acid] | 0.0126 to 0.1 | – |
| COc1cc(C(=O)N[C@H](Cc2ccc(-c3ccccc3)cc2)C[C@@H](O)C(=O)O)on1 [Example 12-3, (2R,4R)-5-Biphenyl-4-yl-2-hydroxy-4-[(3-methoxyisoxazole-5-carbonyl)amino]-pentanoic acid] | 0.00126 to 0.01 | – |
| O=C(N[C@H](Cc1ccc(-c2ccccc2)cc1)C[C@@H](O)C(=O)O)c1cc(-c2ccc(Cl)cc2)on1 [Example 12-17, (2R,4R)-5-Biphenyl-4-yl-4-{[5-(4-chlorophenyl)-isoxazole-3-carbonyl]-amino}-2-hydroxy-pentanoic acid] | 0.00126 to 0.01 | – |

Second part, the compound after the results:

| Ki [µM] | pKi | SMILES |
| --- | --- | --- |
| 0.00126 to 0.01 | – | O=C(N[C@H](Cc1ccc(-c2ccccc2)cc1)C[C@@H](O)C(=O)O)c1cc(-c2cnccn2)n[nH]1 [Example 15-106, (2R,4R)-5-Biphenyl-4-yl-2-hydroxy-4-[(5-pyrazin-2-yl-2H-pyrazole-3-carbonyl)-amino]pentanoic acid] |
| 0.00126 to 0.01 | – | CCCCc1cc(C(=O)N[C@H](Cc2ccc(-c3ccccc3)cc2)CC(O)C(=O)O)[nH]n1 (stereo partly drawn) [Example 15-75, (R)-5-Biphenyl-4-yl-4-[(5-butyl-2H-pyrazole-3-carbonyl)-amino]-2-hydroxy-pentanoic acid] |
| – | ≥9.0 | O=C(N[C@H](Cc1ccc(-c2cccc(Cl)c2)cc1)C[C@@H](O)C(=O)O)c1n[nH]c(Cl)n1 [Example 18-46, (2R,4R)-5-(3′-Chlorobiphenyl-4-yl)-4-[(5-chloro-1H-[1,2,4]triazole-3-carbonyl)-amino]-2-hydroxy-pentanoic acid] |
| – | ≥9.0 | CN(C)C(=O)c1cc(C(=O)N[C@H](Cc2ccc(-c3ccccc3)cc2Cl)C[C@@H](O)C(=O)O)[nH]n1 [Example 20-5, (2R,4R)-5-(3-Chloro-biphenyl-4-yl)-4-[(5-dimethylcarbamoyl-2H-pyrazole-3-carbonyl)-amino]-2-hydroxy-pentanoic acid] |
| – | ≥9.0 | O=C(N[C@H](Cc1ccc(-c2ccccc2)cc1Cl)C[C@@H](O)C(=O)O)c1cnn[nH]1 [Example 20-2, (2R,4R)-5-(3-Chlorobiphenyl-4-yl)-2-hydroxy-4-[(3H-[1,2,3]triazole-4-carbonyl)-amino]-pentanoic acid] |
| 0.00126 to 0.01 | – | NC(=O)c1cc(C(=O)N[C@H](Cc2ccc(-c3ccccc3)cc2)CC(O)C(=O)O)[nH]n1 (stereo partly drawn) [Example 15-59, (R)-5-Biphenyl-4-yl-4-[(5-carbamoyl-2H-pyrazole-3-carbonyl)-amino]-2-hydroxy-pentanoic acid] |
| – | ≥9.0 | O=C(N[C@H](Cc1ccc(-c2ccccc2)cc1)C[C@@H](O)C(=O)O)c1cc(NC(=O)c2ccccc2Cl)n[nH]1 [Example 15-96, (2R,4R)-5-Biphenyl-4-yl-4-{[5-(2-chlorobenzoylamino)-2H-pyrazole-3-carbonyl]-amino}-2-hydroxy-pentanoic acid] |
| ≤ 0.001 | – | CCCNC(=O)c1cc(C(=O)N[C@H](Cc2ccc(-c3ccccc3)cc2)CC(O)C(=O)O)[nH]n1 (stereo partly drawn) [Example 15-61, (R)-5-Biphenyl-4-yl-2-hydroxy-4-[(5-propylcarbamoyl-2H-pyrazole-3-carbonyl)-amino]pentanoic acid] |
| – | ≥9.0 | O=C(N[C@H](Cc1ccc(-c2cccc(Cl)c2)cc1)C[C@@H](O)C(=O)O)c1cc(O)n(-c2ccccn2)n1 [Example 18-37, (2R,4R)-5-(3′-Chloro-biphenyl-4-yl)-2-hydroxy-4-[(5-hydroxy-1-pyridin-2-yl-1H-pyrazole-3-carbonyl)-amino]-pentanoic acid] |
| 0.00126 to 0.01 | – | O=C(O)CNC(=O)c1cc(C(=O)N[C@H](Cc2ccc(-c3ccccc3)cc2)CC(O)C(=O)O)[nH]n1 (stereo partly drawn) [Example 15-56, (R)-5-Biphenyl-4-yl-4-{[5-(carboxymethyl-carbamoyl)-2H-pyrazole-3-carbonyl]-amino}-2-hydroxy-pentanoic acid] |
| 0.0126 to 0.1 | – | COCC(=O)Nc1cc(C(=O)N[C@H](Cc2ccc(-c3ccccc3)cc2)CC(O)C(=O)O)[nH]n1 (stereo partly drawn) [Example 15-94, (R)-5-Biphenyl-4-yl-2-hydroxy-4-{[5-(2-methoxy-acetylamino)-2H-pyrazole-3-carbonyl]-amino}-pentanoic acid] |
| 0.0126 to 0.1 | – | O=C(NC1CC1)c1cc(C(=O)N[C@H](Cc2ccc(-c3ccccc3)cc2)C[C@H](O)C(=O)O)[nH]n1 [Example 15-55, (2S,4R)-5-Biphenyl-4-yl-4-[(5-cyclopropylcarbamoyl-2H-pyrazole-3-carbonyl)-amino]-2-hydroxypentanoic acid] |
| – | ≥9.0 | CC(C)c1cc(C(=O)N[C@H](Cc2ccc(-c3cccc(Cl)c3)cc2)C[C@@H](O)C(=O)O)on1 [Example 18-10, (2R,4R)-5-(3′-Chloro-biphenyl-4-yl)-2-hydroxy-4-[(3-isopropyl-isoxazole-5-carbonyl)-amino]-pentanoic acid] |
